According to patent US12551463B2, “Dosing of a Bruton's tyrosine kinase inhibitor” (Loxo Oncology, Inc., priority 2019, dated 2026):
Entries after “also recorded” stand apart in the source; their conditions may differ. Where two headings read alike, the source gives them in different places. Marks after values point to notes of the source that are not given here.

Test: Phase 1/2 clinical study: pharmacokinetics in cancer patients
Assay type: in vivo, human
Conditions: for half-life: read-out: T1/2 Geo mean (% CV) (converted); for Cmax: read-out: Cmax Geo mean (% CV); for Tmax: read-out: Tmax Median (min, max)
Excerpt: The study is an open-label, multi-center study of oral BTK-I to evaluate safety and efficacy as monotherapy and as part of combination therapy in patients with CLL/SLL and NHL who have failed or are intolerant to standard of care. This study includes monotherapy as well as combination treatment parts. The monotherapy part includes Phase 1 dose escalation and dose expansion as well as Phase 2. The combination therapy part is a Phase 1b (safety assessment and expansion) of BTK-I in combination with venetoclax, with or without anti-CD20 therapy. Phase 1 dose escalation will proceed prior to start of Phase 1b or Phase 2. Once a recommended Phase 2 dose (RP2D) is identified in Phase 1, enrollment can commence to the Phase 1b combination therapies and Phase 2 monotherapy cohorts.
BTK-I is administered in oral tablet form. Dose escalation will follow a 3+3 design starting with a 25 mg QD dose (followed by 50 mg QD (dose level cohort 2), 100 mg QD (dose level cohort 3), 150 mg QD (dose level cohort 4), 200 mg QD (dose level cohort 5), 250 mg QD (dose level cohort 6), and 300 mg QD (dose level cohort 7)). Cycle length will be 28 days. The drug limiting toxicity (DLT) period will be 28 days, commencing with the first dose of BTK-I.
The pharmacokinetic profiles and adverse events for BTK-I doses are summarized in the below tables.
Pharmacokinetic Parameters of BTK-I—in Cancer Patients at Steady State (Cycle 1 Day 8)

[1] = human, plasma, oral, 25 mg QD, steady state (Cycle 1 Day 8), N=5
[2] = human, plasma, oral, 25 mg, read-out: Mean patient plasma CONC (SD)
[3] = human, plasma, oral, 50 mg QD, steady state (Cycle 1 Day 8), N=6
[4] = human, plasma, oral, 50 mg, read-out: Mean patient plasma CONC (SD)

SMILES: COc1ccc(F)cc1C(=O)NCc1ccc(-c2nn([C@@H](C)C(F)(F)F)c(N)c2C(N)=O)cc1 [BTK-I, (S)-5-amino-3-(4-((5-fluoro-2-methoxybenzamido)methyl)phenyl)-1-(1,1,1-trifluoropropane-2-yl)-1H-pyrazole-4-carboxamide]
- Ratio AUC0-8 Day 8/Day 1 Geo mean (% CV) (25 mg QD (N = 5)): 1.44 (23.0%)
- CL/F Geo mean (% CV) (25 mg QD, steady state (Cycle 1 Day 8), N = 4, % CV 69.6%): 1.55^a (69.6%) L/h
- dose dependence of exposure (Cmax and AUC) (25 mg to 300 mg daily): dose-5 dependent and linear increases in BTK-I exposure; also recorded: linear dose-proportional exposures
- interpatient variability of exposure (25 mg to 300 mg daily): low interpatient variability
- Ratio AUC0-8 Day 8/Day 1 Geo mean (% CV) (50 mg QD (N = 6)): 1.51 (25.9%)
- CL/F Geo mean (% CV) (50 mg QD, steady state (Cycle 1 Day 8), N = 5, % CV 36.7%): 2.62^b (36.7%) L/h
- Ratio AUC0-8 Day 8/Day 1 Geo mean (% CV) (100 mg QD (N = 9)): 1.88 (42.8%)
- CL/F Geo mean (% CV) (100 mg QD, steady state (Cycle 1 Day 8), N = 8, % CV 63.0%): 0.968^c (63.0%) L/h
- Ratio AUC0-8 Day 8/Day 1 Geo mean (% CV) (150 mg QD (N = 20)): 1.74 (24.9%)
- T1/2 Geo mean (% CV) (150 mg QD, steady state (Cycle 1 Day 8), N = 18, % CV 51.8%): 18.l^d (51.8%)
- CL/F Geo mean (% CV) (150 mg QD, steady state (Cycle 1 Day 8), N = 18, % CV 66.7%): 1.36^d (66.7%) L/h
- trough steady-state exposure relative to BTK IC96 (200 mg QD): BTK IC96 target coverage
- Ratio AUC0-8 Day 8/Day 1 Geo mean (% CV) (200 mg QD, N = 73, % CV 29.6%): 1.69^h (29.6%)^
- CL/F Geo mean (% CV) (200 mg QD, steady state (Cycle 1 Day 8), N = 64, % CV 61.8%): 1.14^e (61.8%) L/h
- Ratio AUC0-8 Day 8/Day 1 Geo mean (% CV) (250 mg QD (N = 25)): 1.68 (24.5%)
- CL/F Geo mean (% CV) (250 mg QD, steady state (Cycle 1 Day 8), N = 21, % CV 1.08%): 1.26^f (1.08%) L/h
- Cmax Geo mean (% CV) (250 mg QD, steady state (Cycle 1 Day 8), N=25): 8100 (28.1%) ng/mL
- Ratio AUC0-8 Day 8/Day 1 Geo mean (% CV) (300 mg QD, N=17): 2.15 (31.2%)
- CL/F Geo mean (% CV) (300 mg QD, steady state (Cycle 1 Day 8), N = 16, % CV 42.5%): 1.63^g (42.5%) L/h
- AUC(0-t) (human, plasma, oral, 25 mg, 25 mg QD, steady state (Cycle 1 Day 8), N=5, read-out: AUC0-8 Geo mean (% CV)): 4240 ng·h/mL
- AUC(0-t) (human, plasma, oral, 25 mg, 25 mg QD, steady state (Cycle 1 Day 8), N=5, read-out: AUC0-24 Geo mean (% CV)): 9800 ng·h/mL
- AUC(0-t) (human, plasma, oral, 50 mg, 50 mg QD, steady state (Cycle 1 Day 8), N=6, read-out: AUC0-8 Geo mean (% CV)): 8660 ng·h/mL
- AUC(0-t) (human, plasma, oral, 50 mg, 50 mg QD, steady state (Cycle 1 Day 8), N=6, read-out: AUC0-24 Geo mean (% CV)): 20100 ng·h/mL
- AUC(0-t) (human, plasma, oral, 100 mg, 100 mg QD, steady state (Cycle 1 Day 8), N=9, read-out: AUC0-8 Geo mean (% CV)): 22000 ng·h/mL
- AUC(0-t) (human, plasma, oral, 100 mg, 100 mg QD, steady state (Cycle 1 Day 8), N=9, read-out: AUC0-24 Geo mean (% CV)): 52400 ng·h/mL
- AUC(0-t) (human, plasma, oral, 150 mg, 150 mg QD, steady state (Cycle 1 Day 8), N=20, read-out: AUC0-8 Geo mean (% CV)): 28000 ng·h/mL
- AUC(0-t) (human, plasma, oral, 150 mg, 150 mg QD, steady state (Cycle 1 Day 8), N=20, read-out: AUC0-24 Geo mean (% CV)): 64400 ng·h/mL
- AUC(0-t) (human, plasma, oral, 200 mg, 200 mg QD, steady state (Cycle 1 Day 8), N=99, read-out: AUC0-8 Geo mean (% CV)): 36900 ng·h/mL
- AUC(0-t) (human, plasma, oral, 200 mg, 200 mg QD, steady state (Cycle 1 Day 8), N=99, read-out: AUC0-24 Geo mean (% CV)): 91000 ng·h/mL
- AUC(0-t) (human, plasma, oral, 250 mg, 250 mg QD, steady state (Cycle 1 Day 8), N=25, read-out: AUC0-8 Geo mean (% CV)): 49700 ng·h/mL
- AUC(0-t) (human, plasma, oral, 250 mg, 250 mg QD, steady state (Cycle 1 Day 8), N=25, read-out: AUC0-24 Geo mean (% CV)): 111000 ng·h/mL
- AUC(0-t) (human, plasma, oral, 300 mg, 300 mg QD, steady state (Cycle 1 Day 8), N=17, read-out: AUC0-8 Geo mean (% CV)): 65800 ng·h/mL
- AUC(0-t) (human, plasma, oral, 300 mg, 300 mg QD, steady state (Cycle 1 Day 8), N=17, read-out: AUC0-24 Geo mean (% CV)): 158000 ng·h/mL
- half-life (human, plasma, oral, 25 mg QD, steady state (Cycle 1 Day 8), N = 4, % CV 60.1%): 18.2 h
- Cmax [1]: 734 ng/mL
- Tmax [1]: 2 h
- concentration at 0 h [2]: 263 ng/mL
- concentration at 1 h [2]: 572 ng/mL
- concentration at 2 h [2]: 650 ng/mL
- concentration at 4 h [2]: 538 ng/mL
- concentration at 8 h (human, plasma, oral, 25 mg, 8 hr, read-out: Mean patient plasma CONC (SD)): 495 ng/mL
- concentration at 24 h (human, plasma, oral, 25 mg, 24 hr (not measured, inferred based on predose), read-out: Mean patient plasma CONC (SD)): 263 ng/mL
- half-life (human, plasma, oral, 50 mg QD, steady state (Cycle 1 Day 8), N = 5, % CV 39.6%): 17.6 h
- Cmax [3]: 1420 ng/mL
- Tmax [3]: 1.5 h
- concentration at 0 h [4]: 571 ng/mL
- concentration at 1 h [4]: 1150 ng/mL
- concentration at 2 h [4]: 1300 ng/mL
- concentration at 4 h [4]: 1170 ng/mL
